Source: patent US6875884B1, “Urea derivatives as inhibitors for CCR-3 receptor” (Kirin Beer Kabushiki Kaisha, priority 1999, dated 2005)

Biological target: T1, CCR-3 (Homo sapiens, UniProt P51677)
T1 sequence (P51677 1-355): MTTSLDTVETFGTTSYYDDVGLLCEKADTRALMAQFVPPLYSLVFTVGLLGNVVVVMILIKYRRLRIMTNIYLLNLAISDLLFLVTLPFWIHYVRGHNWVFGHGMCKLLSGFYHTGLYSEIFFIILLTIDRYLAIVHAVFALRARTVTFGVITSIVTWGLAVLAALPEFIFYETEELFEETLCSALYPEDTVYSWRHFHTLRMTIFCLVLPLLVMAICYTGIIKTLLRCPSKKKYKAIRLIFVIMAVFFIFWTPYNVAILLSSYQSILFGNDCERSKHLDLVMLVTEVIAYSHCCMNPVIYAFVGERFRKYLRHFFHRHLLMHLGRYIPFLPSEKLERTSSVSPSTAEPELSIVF
Assay: Inhibition of eotaxin-induced chemotaxis of CCR-3 transfectant cells (CCR3/U937)
Type: cell-based
Set-up: expressed in transfected cells; host or cells: U937
Settings: eotaxin 1×10^−9 M; for Chemotaxis Assay 10 μM (inhibition %): compound 10 μM; for inhibition at 10 µM: U-937, compound 10 μM
Experimental: The inhibitory activity of the compounds against eotaxin-induced chemotaxis was determined by measuring the inhibition of migration of CCR-3 transfectant cells (CCR3/U937), using a minor modification of the method described by Ohashi, H. et al., Int Arch Allergy Immunol. (1999) 118, 44-50. CCR-3 transfectant cells were grown in PRMI1640 medium containing 10% fetal calf serum (FCS) and Geneticin 418 (0.8 mg/ml). For the assay, CCR-3 transfectant cells were isolated and resuspended at 1×10^7 cells/ml in assay medium (RPMI 1640 medium containing 0.1% bovine serum albumin (BSA)). The chemotaxis assay was performed in a 24-well culture plate. Human eotaxin suspended in assay medium was added to the wells at 1×10^−9 M along with test compounds at various concentrations. For a positive control, eotaxin was added to the wells without a test compound, and for a negative control, neither eotaxin nor a test compound was added to the walls. Chemotaxicell (Kurabo Co., Ltd.) having 5 micrometers pore size were inserted into each well and 100 micro liters of CCR-3 transfectant cells suspension were added to the top chamber. The plates were incubated at 37° C. for 1 hour. After incubation, migrated cells in lower wells were diluted and counted by particle size distribution analyzer (CDP-500, Sysmex Co., Ltd.)

Compound | Chemotaxis Assay 10 μM (inhibition %) (Table 3a) | other results
CCN(CCNC(=O)Nc1ccc([N+](=O)[O-])cc1)CCc1ccc(Cl)cc1 [Compound 4] | 59% | 
CCN(CCCNC(=O)Nc1ccc(Cl)cc1)CCc1ccc(Cl)cc1 [Compound 6] | 100% | 
CCN(CCCNC(=O)Nc1ccccc1OC)CCc1ccc(Cl)cc1 [Compound 9] | 100% | 
COc1ccc(CN(CCCNC(=O)Nc2ccccc2)CCc2ccc(Cl)cc2)cc1 [Compound 18] | 58% | 
O=C(NCCCN(CCc1ccc(Cl)cc1)Cc1cccnc1)Nc1ccccc1 [Compound 23] | 82% | 
O=C(NCCCN(CCc1ccccc1)CCc1ccc(Cl)cc1)Nc1ccccc1 [Compound 25] | 88% | 
CN(CCCNC(=O)Nc1ccccc1)CCc1ccc(Cl)cc1 [Compound 27] | 97% | 
COC(=O)CCCN(CCCNC(=O)Nc1ccc(Br)cc1)Cc1cccs1 [Compound 39] | 78% | 
COC(=O)CCCN(CCCNC(=O)Nc1ccc(Br)cc1)CCc1ccc(OC)c(OC)c1 [Compound 43] | 50% | 
COC(=O)CCCN(CCNC(=O)Nc1ccc(Br)cc1)C1CCCc2ccccc21 (centres unmarked) [Compound 50] | 54% | 
O=C(O)CCCN(CCNC(=O)Nc1ccc(Br)cc1)C1CCCc2ccccc21 (centres unmarked) [Compound 81] | 58% | 
CCN(CCc1ccc(Cl)cc1)CC(O)CNC(=O)Nc1ccccc1 (centres unmarked) [Compound 163, N-phenylcarbamoyl-N′-[2-(4-chlorophenyl)ethyl]-N′-ethyl 2-hydroxy-1,3-diaminopropane] |  | inhibition at 10 µM (Table 3a): 96%
O=C(O)CCCN(CCCNC(=S)Nc1ccc(Cl)cc1)C1CCCc2ccccc21 (centres unmarked) [Compound 164, 4-[[3-(4-chlorophenylthioureido)propyl](1,2,3,4-tetrahydro-1-naphthyl)amino]butanoic acid] |  | inhibition at 10 µM (Table 3a): 100%
CC(C)(C)OC(=O)[C@H](CCN(CCCC(=O)O)C1CCCc2ccccc21)NC(=O)Nc1ccc(Br)cc1 (stereo partly drawn) [Compound 165, 4[[(3S)-3-(4-bromophenylureido)-3-(tert-butoxycarbonyl)propyl](1,2,3,4-tetrahydro-1-naphthyl)amino]butanoic acid] |  | inhibition at 10 µM (Table 3a): 100%
CC(C)(C)OC(=O)[C@H](CCN(CCCC(=O)O)C1CCCc2ccccc21)NC(=O)Nc1ccc(Br)cc1 (stereo partly drawn) [Compound 166, 4[[(3S)-3-(4-bromophenylureido)-3-(tert-butoxycarbonyl)propyl](1,2,3,4-tetrahydro-1-naphthyl)amino]butanoic acid] | 100% | 
O=C(O)CCCN(CC(O)CNC(=O)Nc1ccc(Br)cc1)C1CCCc2ccccc21 (centres unmarked) [Compound 167, 4-[[3-(4-bromophenylureido)-2-hydroxypropyl](1,2,3,4-tetrahydro-1-naphthyl)amino]butanoic acid] |  | inhibition at 10 µM (Table 3a): 100%
O=C(O)CCCN(CCCNC(=O)Nc1ccc(Br)cc1)C1CCc2ccccc21 (centres unmarked) [Compound 173, 4-[[3-(4-Bromophenylureido)propyl](1-indanyl)amino]butanoic acid] |  | inhibition at 10 µM (Table 3a): 100%
CCCCOC(=O)c1ccc(NC(=O)NCCCN(CCCC(=O)O)C2CCCc3ccccc32)cc1 (centres unmarked) [Compound 237] | 100% | 
O=C(O)CCCN(CCCNC(=S)Nc1ccc(Br)cc1)C1CCCc2ccccc21 (centres unmarked) [Compound 246] | 100% | 
O=C(O)CCCN(CCCNC(=S)Nc1cccc(Br)c1)C1CCCc2ccccc21 (centres unmarked) [Compound 247] | 99% | 
O=C(O)CCCN(CCCNC(=S)Nc1cccc(Cl)c1)C1CCCc2ccccc21 (centres unmarked) [Compound 248] | 100% | 

Compound | Chemotaxis Assay 10 μM (inhibition %) (Table 3a) | other results
O=C(O)CCCN(CCCNC(=S)Nc1ccc(I)cc1)C1CCCc2ccccc21 (centres unmarked) [Compound 249] | 100% | 
Cc1ccc(NC(=S)NCCCN(CCCC(=O)O)C2CCCc3ccccc32)cc1 (centres unmarked) [Compound 250] | 99% | 
O=C(O)CCCN(CCCNC(=S)Nc1ccc(Cl)c(Cl)c1)C1CCCc2ccccc21 (centres unmarked) [Compound 251] | 100% | 
COC(=O)CCCN(CCCNC(=S)Nc1ccc(Br)cc1)C1CCCc2ccccc21 (centres unmarked) [Compound 252] | 100% | 
COC(=O)CCCN(CCCNC(=S)Nc1cccc(Br)c1)C1CCCc2ccccc21 (centres unmarked) [Compound 253] | 74% | 
COC(=O)CCCN(CCCNC(=S)Nc1ccc(I)cc1)C1CCCc2ccccc21 (centres unmarked) [Compound 255] | 100% | 
COC(=O)CCCN(CCCNC(=S)Nc1ccc(Cl)c(Cl)c1)C1CCCc2ccccc21 (centres unmarked) [Compound 256] | 100% | 
O=C(O)CCCN(CCCNC(=S)Nc1ccc(F)cc1)C1CCCc2ccccc21 (centres unmarked) [Compound 257] | 100% | 
O=C(O)CCCN(CCCNC(=O)Nc1cc(Cl)nc(Cl)c1)C1CCCc2ccccc21 (centres unmarked) [Compound 279] | 96% | 
COC(=O)CCCN(CC[C@H](NC(=O)Nc1ccc(Br)cc1)C(=O)OC(C)(C)C)C1CCCc2ccccc21 (some centres unmarked) [Compound 281] | 100% | 
COC(=O)CCCN(CC[C@H](NC(=O)Nc1ccc(Br)cc1)C(=O)NC(C)C)C1CCCc2ccccc21 (stereo partly drawn) [Compound 282, methyl 4-[[(3S)-3-(4-bromophenylureido)-3-(isopropylcarbamoyl)propyl](1,2,3,4-tetrahydro-1-naphthyl)amino]butylate] | 100% | 
COC(=O)CCCN(CC[C@H](NC(=O)Nc1ccc(Br)cc1)C(=O)NCc1ccccc1)C1CCCc2ccccc21 (stereo partly drawn) [Compound 283, Methyl 4-[[(3S)-3-(4-bromophenylureido)-3-(benzylcarbamoyl)propyl](1,2,3,4-tetrahydro-1-naphthyl)amino]butylate] | 100% | 
CC(C)NC(=O)[C@H](CCN(CCCC(=O)O)C1CCCc2ccccc21)NC(=O)Nc1ccc(Br)cc1 (stereo partly drawn) [Compound 284, 4-[[(3S)-3-(4-Bromophenylureido)-3-(isopropylcarbamoyl)propyl](1,2,3,4-tetrahydro-1-naphthy1)amino]butanoic acid] | 95% | 
CC(C)NC(=O)[C@H](CCN(CCCC(=O)O)C1CCCc2ccccc21)NC(=O)Nc1ccc(Br)cc1 (stereo partly drawn) [Compound 286, 4-[[(3S)-3-(4-Bromophenylureido)-3-(isopropylcarbamoyl)propyl](1,2,3,4-tetrahydro-1-naphthyl)amino]butanoic acid] |  | inhibition at 10 µM (Table 3a): 100%
O=C(O)CCCN(CC[C@H](NC(=O)Nc1ccc(Br)cc1)C(=O)NCc1ccccc1)C1CCCc2ccccc21 (stereo partly drawn) [Compound 287, 4-[[(3S)-3-(4-Bromophenylureido)-3-(benzylcarbamoyl)propyl](1,2,3,4-tetrahydro-1-naphthyl)amino]butanoic acid] | 100% | 
O=C(O)CCCN(CCCNC(=S)Nc1ccc(Br)cc1)[C@@H]1CCc2ccccc21 [Compound 288, 4-[[3(4-Bromophenylthioureido)propyl][(1R)-1-indanyl]amino]butanoic acid] |  | inhibition at 10 µM (Table 3a): 100%
CC(c1ccccc1)N(CCCNC(=S)Nc1ccc(Br)cc1)CCCC(=O)O (centres unmarked) [Compound 289] | 100% | 
O=C(O)CCCN(CCCNC(=S)Nc1ccc(Br)cc1)[C@@H]1CCCc2ccccc21 [Compound 290, 4-[[3(4-Bromophenylthioureido)propyl][(1R)-1,2,3,4-tetrahydro-1-naphthyl]amino]butanoic acid] |  | inhibition at 10 µM (Table 3a): 100%
CC[N+](CC)(CCCNC(=S)Nc1ccc(Br)cc1)CCc1ccc(Cl)cc1.[I-] [Compound 335] |  | Chemotaxis Assay 10 μM (inhibition %) (Table 3c): 100%
CC[N+](CC)(CCCNC(=S)Nc1ccccc1)CCc1ccc(Cl)cc1.[I-] [Compound 336] |  | Chemotaxis Assay 10 μM (inhibition %) (Table 3c): 100%
